Data as given in patent US5955508A, “Method for the enhancement of lymphocyte activity against opportunistic microbial pathogens” (priority 1996, dated 1999).

Key:
K562 human tumor cells [1] = assay: Incidence and metastasis of human K562 tumors in SCID mice reconstituted with human PBMC; assay type: in vivo
Experimental: The purpose of the present experiments was to determine whether d-FEN can enhance the ability of the human immune system to kill a human tumor cell line, vis. K562 human chronic myelogenous leukemia cells. Toward this end d-FEN and vehicle (VEH) treated young male severe combined immunodeficient (SCID) beige mice, reconstituted 4 days previously with human peripheral blood mononuclear cells (PBMC) obtained from two human volunteers, were injected with K562 cells and tumor size and number measured 13-18 days later.
SCID mice (n=36) were obtained from Harlan Sprague-Dawley Inc. (Indianapolis, Ind.). This inbred strain of mice are devoid of T, B, and natural killer (NK) cells. The animals were housed 3/cage in an AAALAC approved facility with a 12 h light-dark cycle (lights on at 07:00 h). The temperature and humidity of the facility were maintained between 72-75° F. and 52-55% respectively. Food (Purina mouse chow) and water were available ad libitum.
Protocol. The animals were divided into groups of 6 and subjected to the following treatment for each of the 2 human donors tested:
The mice treated with d-FEN (10 mg/kg/day, p.o.) received the drug daily in their drinking water beginning 10 days prior to inoculation with human PBMC. On the day of PBMC injection (3×10^7 human PBMC/mouse, i.p.) the dose of d-FEN was reduced to […]. The average daily water intakes and body weights of the mice were 6 ml and 20 g, respectively. Therefore, a dose of 6 mg/kg equaled 2 mg of d-FEN per 100 ml of water. Four days after reconstitution with human PBMC, 1×10^7 K562 human tumor cells/mouse were injected i.p. The animals were sacrificed between 11:00 and 13:00 h 13-18 days after K562 cell injection (17-22 and 27-32 days, respectively, after transfection with human PBMC and the start of d-FEN treatment). The animals were thoroughly necropsied and tumor sites counted, excised, weighed and fixed for histological analysis.
For reconstitution of SCID mice with human PBMC, 500 ml of venous blood was drawn into sterile plastic pouches containing preservative free heparin. Blood was drawn by Apheresis Lab nurses at LUMC (Loyola University Medical Center) and was diluted with an equal volume of HBSS. The diluted blood (20 ml) was layered over 10 ml of Histopaque 1077 (Sigma Chemical Company, St. Louis, Mo.) and centrifuged at 1000×g for 30 min. After centrifugation, the mononuclear cell layer was recovered from the interface and washed twice in HBSS. After microscopic enumeration, the PBMC were resuspended in HBSS at a concentration of 1×10^8 cells/ml, and 0.3 ml (3×10^7 cells) of the cell suspension was injected (i.p.) into each SCID mouse.
(§1) The K562 cell line originated from a chronic myelogenous leukemia patient and was obtained from Dr. T. Ellis (Director, Cellular Immunology Laboratory, LUMC). The K562 cells used for assessment of cytotoxic activity were maintained in long term cultures using Corning 25 cm^2 tissue culture flasks (Corning Glass Works, Corning, N.Y.) containing RPMI 1640 (Gibco Laboratories, Grand Island, N.Y.) supplemented with low LPS 10% fetal bovine serum (FBS; Gibco), 100 units/ml penicillin, 100 μg/ml streptomycin (Whittaker M. A. Bioproducts, Walkersville, Md.), 0.1 mM non-essential amino acids, and 2 mM L-glutamine (Gibco). This medium was used throughout, except where noted, and is referred to as "culture medium". The K562 cells were grown in suspension and were passaged three times per week by transfer of 10^6 K562 cells into a flask containing 10 ml of fresh culture medium. The K562 cells injected into the SCID mice were supplemented with fresh medium at a 1:3 dilution the day before administration. They were washed once in medium, pelleted by centrifugation at 500 ×g for 10 min., then resuspended at a concentration of 5×10^7. Subsequently, 0.2 ml (1×10^7 cells) of the cell suspension was injected (i.p.) into each SCID mouse. The K562 cells were administered to the animals four days after the injection of PBMC.

K562 human tumor cells [2] = assay: Natural killer cell cytotoxicity of human PBMC against K562 tumor cells in vitro; assay type: cell-based
Experimental: Prior to conducting the above experiment, we examined the dose dependent effects of d-FEN on the ability of human PBMC obtained from five healthy volunteers (person Caucasians) to kill human K562 tumor cells in vitro. The potential cytotoxic enhancing effects of d-FEN and d-norFEN were compared using PBMC from two of the five human donors.
For assessment of immunological parameters of human PBMC, venous blood as aseptically drawn into sterile 10 ml tubes containing 20 U/ml preservative free heparin, diluted with an equal volume of Hank's Balanced Salt Solution (HBSS), layered over Lymphocyte Separation Medium (LSM, Bionetics, Kensington, Md.) and centrifuged at 1,000 ×g for 30 min. After centrifugation, the mononuclear cell layer was recovered from the interface and washed twice in HBSS and enumerated.
as §1
The K562 tumor cell lines maintained in vitro were washed once in culture medium, pelleted by centrifugation at 500×g for 10 min and resuspended in approximately 0.1 ml of culture medium. Subsequently, 100 μCi of [^51 Cr] (New England Nuclear, Boston, Mass.) was added to 1×10^5 cells in a final volume of 0.2 ml. The cells were incubated at 37° C. with 5% CO2 for 1 h with agitation every 10 min, then washed 3 times in HBSS, resuspended to 5×10^4 cells/ml in culture medium and 0.1 ml (5×10^3) aliquoted to each well of a 96 well round bottom assay plate (Corning Glass Works, Corning, N.Y.). Radiolabelled K562 was cultured for 4 h with lymphocytes at effector to target ratios ranging from 50:1 to 6:1. Following 4 h of culture the media was removed using a Skatron harvesting press (Skatron Inc., Sterling, Va.) and associated radioactivity determined. Maximum release was obtained by adding 0.05% Nonidet P-40 (Sigma Chemical Co., St. Louis, Mo.).
The results have been expressed as % cytotoxicity and calculated by the formula: % cytotoxicity=[(experimental DPM-minimum DPM)/(maximum DPM-minimum DPM)]×100.
All experimental means were calculated from triplicate values. Lytic units (LU) were calculated using a computer program written by David Coggins, FCRC, Frederick, Md.

lymphocyte functions = conditions: Clancy and Lorens, 1996, Mathews et al.; cited from earlier work
[3] = K562 + PBMC + d-FEN (10 then 6 mg/kg/day p.o.)
[4] = K562 + PBMC + d-FEN (10 then 6 mg/kg/day p.o.), p = 0.05

CCN[C@@H](C)Cc1cccc(C(F)(F)F)c1 [d-FEN]
Number of Mice Showing Multiple Tumor Sites (K562 human tumor cells [1]; [3]): 1/12 | Percent of Mice Showing Multiple Tumor Sites / tumor metastasis (K562 human tumor cells [1]; [3]): 8% | Number of Mice Having Tumors (K562 human tumor cells [1]; [4]): 5/12 | Percent of Mice Having Tumors (K562 human tumor cells [1]; [4]): 42% | Body Weight (K562 human tumor cells [1]; K562 + PBMC + d-FEN (10 then 6 mg/kg/day p.o., drinking water)): 17.5 ± 2.1 g | incidence of histopathologically confirmed lymphomas in words (K562 human tumor cells [1]; d-FEN treated SCID mice, p=0.05): significantly (p=0.05) reduced incidence | body weights and water intakes in words (K562 human tumor cells [1]; d-FEN treated vs control SCID mice): did not differ from those of the control animals | tumor metastasis in words (K562 human tumor cells [1]; d-FEN treated vs other two groups, p=0.6): did not reach significance | anorexigenic action and weight loss (K562 human tumor cells [1]; doses used during the studies): No effect of this type was observed | largest tumor (K562 human tumor cells [1]; one of the d-FEN treated mice, with metastasis): 0.833 g | Percent Change in Cytotoxicity (Mean ± SEM) (K562 human tumor cells [2]; 0.25 ng/ml): 19 ± 2% | percent increase in cytotoxicity (K562 human tumor cells [2]; 0.25 ng/ml, DONOR #1): 22% | percent increase in cytotoxicity (K562 human tumor cells [2]; 0.25 ng/ml, DONOR #2): 19% | Percent Change in Cytotoxicity (Mean ± SEM) (K562 human tumor cells [2]; 0.50 ng/ml): 28 ± 4% | percent increase in cytotoxicity (K562 human tumor cells [2]; 0.50 ng/ml, DONOR #1): 36% | percent increase in cytotoxicity (K562 human tumor cells [2]; 0.50 ng/ml, DONOR #2): 21% | Percent Change in Cytotoxicity (Mean ± SEM) (K562 human tumor cells [2]; 1.00 ng/ml): 16 ± 3% | percent increase in cytotoxicity (K562 human tumor cells [2]; 1.00 ng/ml, DONOR #1): 23% | percent increase in cytotoxicity (K562 human tumor cells [2]; 1.00 ng/ml, DONOR #2): 17% | Percent Change in Cytotoxicity (Mean ± SEM) (K562 human tumor cells [2]; 4.00 ng/ml): 11 ± 5% | Percent Change in Cytotoxicity (Mean ± SEM) (K562 human tumor cells [2]; 20.00 ng/ml): -33 ± 5% | Percent Change in Cytotoxicity (Mean ± SEM) (K562 human tumor cells [2]; 50.00 ng/ml): -53 ± 6% | Percent Change in Cytotoxicity (Mean ± SEM) (K562 human tumor cells [2]; 100.00 ng/ml): -87 ± 2% | dose dependent effect on cytotoxicity in words (K562 human tumor cells [2]; PBMC of five healthy volunteers, p<0.001): low doses of d-FEN enhanced whereas higher doses reduced cytotoxicity | d-FEN vs d-norFEN effect on cytotoxicity in words (K562 human tumor cells [2]; PBMC of two donors): virtually identical effects | effect on capacity of human NK cells to kill K562, in words (K562 human tumor cells [2]; conclusion): augments the capacity of human NK cells to kill the human tumor cell line, K562 | immune functions in experimental animal models, in words (lymphocyte functions): augment T and B lymphocyte functions, to increase cell-mediated cytotoxicity for natural killer cell (NK) tumor targets and to enhance cell-mediated activities for opportunistic microbial pathogens
